Measured values taken from patent publication US10758609B2, “Cross-reactive T-cell epitopes of HIV, SIV, and FIV for vaccines in humans and cats” (priority 2015, dated 2020).

What was measured:
[1] = system: PBMC from FIV-vaccinated cats; assay: Feline IFNγ ELISpot of PBMC from vaccinated cats; type: cell-based, cat; conditions: for IFNγ production: pilot study, pre-challenge; for IFNγ response rate: MAP Trial 2
Procedure: IFNγ and IL2 ELISpot analyses were performed using feline IFNγ ELISpot and feline IL2 ELISpot kits (R&D Systems, Cat# SEL764 and SEL1890) as described. The threshold is defined as ≥50 spot forming units (SFU) per 1×10^6 PBMC when counted with MVS ELISpot Reader (MVS Pacific, LLC). Each result is an average of the duplicate samples after subtraction of the average value of the media controls.
(§1) Concurrently, the overlapping peptide pools of FIV structural/enzyme proteins were used to stimulate PBMC and T cells from FIV-vaccinated cats. These cats were vaccinated with prototype dual-subtype FIV vaccine which was the prototype to our commercial FIV vaccine (Coleman et al., 2014). The feline assays (Example 1) equivalent to those of human assays (Sanou et al., 2013; Roff et al., 2015) were used except for ICS analysis. In place of ICS for cytolysin/cytotoxins, IL2 ELISpot analysis was performed. […] The results for FIV-vaccinated cats included IFNγ and IL2 productions and CD3^+CD4+ and CD3^+CD8^+ T-cell proliferation (Table 9, the second set of results).
The feline IFNγ and L2 ELISpot analyses of PBMC to FIV MAPs and peptides were performed as previously described (Abbott et al. (2012)) using feline IFNγ modular kit (R&D Systems, Minneapolis, Minn.) and feline IL2 modular kit (R&D Systems). All results shown in the figures (FIGS. 8A-1, 8B-1, 8A-2, 8B-2, 8A-3, 8B-3) are after subtracting the average value of the results from all control cats.
The second parameter evaluated was the ability of the peripheral blood mononuclear cells (PBMC) from vaccinated and control cats to produce IL2 and interferon-γ (IFNγ) proteins in responses to FIV MAPs and peptides (FIGS. 8A-1, 8A-2, 8A-3, 8B-1, 8B-2, 8B-3) using feline IL2 and IFNγ ELISpot assays (Aranyos et al. (2016); Abbott et al. (2012)). IL2 enhances the proliferation of FIV-specific CD4^+ T cells and CD8^+ T cells. IFNγ is known enhance the FIV-specific CTL activities in vaccinated cats (Abbas et al. (2015)).

[2] = system: feline CD3^+CD4^+ T cells; assay: CFSE-based feline CD3+CD4+ T-cell proliferation; design: species or system cat; conditions: FIV-vaccinated cats; for CD4, frequency of responders: FIV epitope peptide; for CDC4^+ T (T-cell proliferation), frequency of responders: FIV peptides
Procedure: (§2) Carboxyfluorescein diacetate succinimide ester (CFSE)-proliferation was performed according to the manufacturer's protocol (Invitrogen, Grand Island, N.Y.) and processed using a previously described modification. The modification consisted of 2.5×10^5 CFSE-labeled feline PBMC stimulated for 5 days (37° C., 5% CO2) with 4 μg/mL peptide in culture media (RPMI medium 25 µg/mL gentamycin, and 10% heat-inactivated fetal bovine serum (FBS)). Peptide pools consisted of 3-5 overlapping peptides of 4 μg/mL each. The antibodies used for flow cytometry based proliferation analysis consisted of murine anti-feline (Fe) CD3 monoclonal antibody (MAb clone kindly provided by Drs. Yorihiro Nishimura and Takayuki Miyazawa; described in [32]) combined with secondary goat anti-mouse IgG3-APC/CY7 MAb (SouthernBiotech, Birmingham, Ala.; Cat#1100-19); and murine anti-FeCD4-PE MAb (SouthernBiotech, Cat#8130-09); and murine anti-FeCD8 MAb (MAb clone kindly provided by Dr. Nazareth Gengozian, described in [33]) with secondary goat anti-mouse IgG2a-PE/CY7 (Southern Biotech, Cat#1080-17). The murine anti-B220-APC MAb for detecting feline B cells (SouthernBiotech, Cat#1665-11) and previously described MAbs for CFSE were used for FACS phenotyping. Both FACS phenotyping and CFSE-proliferation analyses were performed with BD LSRII and FACSDiva™ Software (BD Biosciences, San Jose, Calif.). The final value for each sample was derived after subtraction of the average value of the media controls using a positive threshold of ≥1 CFSE^low.
as §1
(§3) Carboxyfluorescein diacetate succinimide ester (CFSE)-proliferation analysis was according to the manufacturer's protocol (Invitrogen-Fisher, Carlsbad, Calif.) and processed as previously described (Roff et al. (2015)) using the following modifications: anti-feline CD3 antibody ((clone NZM1), a generous gift from T. Miyazawa (Univ. of Tokyo, Japan)) in combination with APC-conjugated anti-mouse IgG3 (Southern Biotech, Birmingham, Ala.), PE-conjugated anti-feline CD4 antibody (Southern Biotech), and anti-feline CD8 antibody (gift from N. Gengozian, University of Tennessee (Gengozian et al. (1997))) in combination with PE/Cy7-conjugated anti-mouse IgG2b (Southern Biotech) to detect the proliferation of feline CD3^+CD4+ T cells and feline […]. All results shown in the figures (FIGS. 7A-1, 7B-1, 7A-2, 7B-2, 7A-3, 7B-3) are after subtracting the average value of each results from all control cats. The threshold of CFSE proliferation is ≥0.5 CFSE^low. […]

[3] = system: feline CD3^+CD8^+ T cells; assay: CFSE-based feline CD3+CD8+ T-cell proliferation; design: species or system cat; conditions: FIV-vaccinated cats; for CD8, frequency of responders: FIV epitope peptide; for CD8^+ T (T-cell proliferation), frequency of responders: FIV peptides
Procedure: as §2, §1, §3

[4] = FIV epitope peptide, FIV-vaccinated cats
[5] = FIV peptides, FIV-vaccinated cats (prototype dual-subtype vaccine)

Sequence | IFNγ, frequency of responders [1, 4] | IFNγ, frequency of responders [1, 5] | CD4, frequency of responders [2] | CDC4^+ T (T-cell proliferation), frequency of responders [2] | CD8, frequency of responders [3] | CD8^+ T (T-cell proliferation), frequency of responders [3] | IFNγ production ([1]; cat OCA) | IFNγ production ([1]; cat SBA) | IFNγ response rate ([1]; 6 weeks post-3rd vaccination) | IFNγ response rate ([1]; SQ and ID MAP-vaccinated cats, 6 weeks post-2nd vaccination)
AGLRQSLEQYQVVKQ [FSU4] | +++ (41%-54% (+++)) | +++ (40.1%-54% (+++)) | +++ (41%-54% (+++)) | +++ (40.1%-54% (+++)) | +++ (41%-54% (+++)) | +++ (40.1%-54% (+++)) |  |  |  | 
LLLILCLPTLVDCIRN [FTM8(20)] | ++ (26%-40% (++)) | ++ (25.1%-40% (++)) | ++ (26%-40% (++)) | ++ (25.1%-40% (++)) | ++++ (>54% (++++)) | ++++ (>54% (++++)) |  |  |  | 
KKKSGKWRMLIDFRV [FRT3-3] |  | ± (1.5%-12.4% (±)) | ++ (26%-40% (++)) | ++ (25.1%-40% (++)) | +++ (41%-54% (+++)) | +++ (40.1%-54% (+++)) |  |  |  | 
PTDMATLIMAAPGCA [Fp4-3] | ++ (26%-40% (++)) | ++ (25.1%-40% (++)) | ++++ (>54% (++++)) | ++++ (>54% (++++)) | + (12.5%-25% (+)) | + (12.5%-25% (+)) | 161 SFU | 60 SFU |  | 
KFLYTAFAMQELR [FTM4-3] | ++++ (>54% (++++)) | ++++ (>54% (++++)) | ++ (26%-40% (++)) | ++ (25.1%-40% (++)) | ++ (26%-40% (++)) | ++ (25.1%-40% (++)) |  |  |  | 
WRMLIDFRVLNKL [FRT3-4] | ++ (26%-40% (++)) | ++ (25.1%-40% (++)) | + (12.5%-25% (+)) | + (12.5%-25% (+)) | +++ (41%-54% (+++)) | +++ (40.1%-54% (+++)) |  |  | 64.3% | 14.3%
